For the assay, the system named is Aβ1-42 production. The assay can be described thus: Cellular assay for inhibition of Aβ1-42 production (H4 APP751 SWE clone 8.20). The class given is cell-based. To be noted: H4 APP751 SWE clone 8.20 cells, 19 h incubation. The method, boiled down:
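Inhibition values are IC50s fitted to Viewlux counts after a 19 h compound exposure at 37 °C. Aβ42 was captured by the neoepitope-specific antibody 565 (0.8 ng/well) paired with N-terminal 26D6 (75 ng/well), incubated overnight at 4 °C in pH 7.4 Tris-HCl buffer containing 0.2% BSA.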

The mark [1] stands for this setting: 19 h, class symbols, read-out: Activity Rating (Aβ42 cellular IC50).
Where [2] appears, read: class symbols, read-out: Activity Rating (Aβ42 cellular IC50).
[3] abbreviates: 19 h, read-out: Activity Rating (Aβ42 cellular IC50), numeric value.

Where two headings read alike, the source gives them in different places.

Consider `CNc1nc(Nc2ccc(OC(F)(F)F)cc2)nc2c1CCC2c1ccccc1` (centres unmarked) [Example 236, N4-methyl-7-phenyl-N2-(4-(trifluoromethoxy)phenyl)-6,7-dihydro-5H-cyclopenta[d]pyrimidine-2,4-diamine], for which the IC50 – broadly, the concentration at which inhibition is half-maximal – under setting [1] is over 1 µM.
On to `CNc1nc(Nc2cccc(OC)c2)nc2c1CCC2c1ccccc1` (centres unmarked) [Example 217, N2-(3-methoxyphenyl)-N4-methyl-7-phenyl-6,7-dihydro-5H-cyclopenta[d]pyrimidine-2,4-diamine], for which the IC50 under setting [1] is over 1 µM.
In the case of `COc1cc(Nc2nc3c(c(N(C)C)n2)COCC3c2ccc(F)cc2)ccc1-n1cnc(Cl)c1` (centres unmarked) [Example 61B, N2-(4-(4-chloro-1H-imidazol-1-yl)-3-methoxyphenyl)-8-(4-fluorophenyl)-N4,N4-dimethyl-7,8-dihydro-5H-pyrano[4,3-d]pyrimidine-2,4-diamine], the IC50 under setting [2] was 0.01 to 0.1 µM.
As to `COCC(Nc1nc(Nc2ccc(-n3cnc(Cl)c3)c(OC)c2)nc2c1CCC2c1ccc(F)cc1)C1CC1` (single isomer, unassigned) [Example 45C, N2-(4-(4-chloro-1H-imidazol-1-yl)-3-methoxyphenyl)-N4-(1-cyclopropyl-2-methoxyethyl)-7-(4-fluorophenyl)-6,7-dihydro-5H-cyclopenta[d]pyrimidine-2,4-diamine], the 50% inhibitory concentration (IC50) under setting [2] lay in the range of 0.01 to 0.1 µM.
Turning to `CNc1nc(Nc2ccc(-n3cnc(C)n3)c(F)c2)nc2c1CCOC2c1ccccc1` (centres unmarked) [Example 86, N2-(3-fluoro-4-(3-methyl-1H-1,2,4-triazol-1-yl)phenyl)-N4-methyl-8-phenyl-6,8-dihydro-5H-pyrano[3,4-d]pyrimidine-2,4-diamine], the IC50 under setting [1] was in the range of 0.01 to 0.1 µM.
On the same count and under the same terms, then `CNc1nc(Nc2ccc(-n3cnc(Cl)c3)c(OC)c2)nc2c1CN(S(=O)(=O)C1CC1)CC2c1ccccc1` (centres unmarked) [Example 130, N2-(4-(4-chloro-1H-imidazol-1-yl)-3-methoxyphenyl)-6-(cyclopropylsulfonyl)-N4-methyl-8-phenyl-5,6,7,8-tetrahydropyrido[4,3-d]pyrimidine-2,4-diamine], with 0.0015 to 0.0099 µM.
Turning to `COc1cc(Nc2nc3c(c(N4CCN(C)CC4)n2)CCC3c2ccc(F)cc2)ccc1-n1cnc(Cl)c1` (single isomer, unassigned) [Example 30B, N-(4-(4-chloro-1H-imidazol-1-yl)-3-methoxyphenyl)-7-(4-fluorophenyl)-4-(4-methylpiperazin-1-yl)-6,7-dihydro-5H-cyclopenta[d]pyrimidin-2-amine], under setting [3], the IC50 was found to be 0.23 µM.
In the case of `CNc1nc(Nc2ccc(-n3cnc(C)n3)c(OC)c2)nc2c1CN(C)CC2c1ccc(F)cc1` (centres unmarked) [Example 198, 8-(4-fluorophenyl)-N2-(3-methoxy-4-(3-methyl-1H-1,2,4-triazol-1-yl)phenyl)-N4,6-dimethyl-5,6,7,8-tetrahydropyrido[4,3-d]pyrimidine-2,4-diamine], under setting [2], the IC50 lay within 0.01 to 0.1 µM.
Turning to `COc1cc(Nc2nc3c(c(N4CC[C@@H](F)C4)n2)CCC3c2ccc(F)cc2)ccc1-n1cnc(Cl)c1` (single isomer, unassigned) [Example 38A], the IC50 under setting [3] was determined as 0.012 µM.
Regarding `CCC1CCCN1c1nc(Nc2ccc(-n3cnc(Cl)c3)c(OC)c2)nc2c1CCC2c1ccc(F)cc1` (single isomer, unassigned) [Example 24, N-(4-(4-chloro-1H-imidazol-1-yl)-3-methoxyphenyl)-4-(2-ethylpyrrolidin-1-yl)-7-(4-fluorophenyl)-6,7-dihydro-5H-cyclopenta[d]pyrimidin-2-amine], the IC50 under setting [2] lay in the range of 0.01 to 0.1 µM.
Consider `COc1cc(Nc2nc3c(c(N(C)C)n2)CCC3c2ccc(F)cc2)ccc1-n1cnc(Cl)c1` (single isomer, unassigned) [Example 46A, N^2-(4-(4-chloro-1H-imidazol-1-yl)-3-methoxyphenyl)-7-(4-fluorophenyl)-N^4,N^4-dimethyl-6,7-dihydro-5H-cyclopenta[d]pyrimidine-2,4-diamine], for which, under setting [2], the IC50 lay in the range of 0.0015 to 0.0099 µM.
`COc1cc(Nc2nc3c(c(N4CC(C)(O)C4)n2)CCC3c2ccc(F)cc2)ccc1-n1cnc(Cl)c1` (centres unmarked) [Example 189, 1-(2-(4-(4-chloro-1H-imidazol-1-yl)-3-methoxyphenylamino)-7-(4-fluorophenyl)-6,7-dihydro-5H-cyclopenta[d]pyrimidin-4-yl)-3-methylazetidin-3-ol]: the IC50 under setting [2] fell in the range of 0.0015 to 0.0099 µM.
Regarding `COc1cc(Nc2nc3c(c(N4CC(F)(F)C4)n2)COC3c2ccc(F)cc2)ccc1-n1cnc(Cl)c1` (racemic) [Example 80, N-(4-(4-chloro-1H-imidazol-1-yl)-3-methoxyphenyl)-4-(3,3-difluoroazetidin-1-yl)-7-(4-fluorophenyl)-5,7-dihydrofuro[3,4-d]pyrimidin-2-amine], the IC50 under setting [1] lay in the range of 0.01 to 0.1 µM.
Turning to `CNc1nc(Nc2ccc(-n3cnc(Cl)c3)c(OC)c2)nc2c1CCC2c1ccc(F)c(F)c1` (single isomer, unassigned) [Example 96B, N^2-(4-(4-chloro-1H-imidazol-1-yl)-3-methoxyphenyl)-7-(3,4-difluorophenyl)-N^4-methyl-6,7-dihydro-5H-cyclopenta[d]pyrimidine-2,4-diamine], the IC50 under setting [3] stood at 0.0046 µM.

(Values after patent US8637525B2, “Compounds for the reduction of beta-amyloid production” (Bristol-Myers Squibb Company, priority 2009, dated 2014).)
